{
  "source": "patent US20240101599A1",
  "about": "“PEPTIDE, CELL GROWTH PROMOTER, PROTEIN PRODUCTION PROMOTER, CULTURE MEDIUM, CELL GROWTH METHOD USING PEPTIDE, AND PROTEIN PRODUCTION METHOD USING PEPTIDE” (Maruhachi Muramatsu, Inc., priority 2020, published 2024)",
  "key": {"CHO-K1": {"tested_on": "CHO-K1", "assay": "Relationship between concentration of each peptide solution and viable cell count (absorbance)", "assay_type": "cell-based", "conditions": "for Absorbance (450 nm): 5 days, MEMα without FBS, n = 3 average, 0 mM = 0.0000; for cell growth promotion, order of the peptides: in words, promoted in the order GEK, DGP, AGK, GPP, GGP, AEK, AGG, ASN, EGK (strongest first)", "experimental": "Peptides having the sequences of Gly-Glu-Lys (GEK), Asp-Gly-Pro (DGP), Ala-Gly-Lys (AGK), Gly-Pro-Pro (GPP), Gly-Gly-Pro (GGP), Ala-Glu-Lys (AEK), Ala-Gly-Gly (AGG), Ala-Ser-Asn (ASN), and Glu-Gly-Lys (EGK), and Gly-Gly-Gly (GGG) are synthesized to prepare each of peptide solutions at 10-fold concentrations shown in Tables 1 to 10.\nA cell suspension prepared such that CHO-K1 (RI KEN BioResource Research Center, cell number: RCB2330) was at 3×10^4 cells/mL was seeded in a 96-well plate at 100 μL/well and cultured in an incubator at 37° C. and 5% CO2 for 24 hours. As a culture medium, an MEMα culture medium (Gibco) containing 10% FBS was used.\nAfter removing the culture medium from each well and washing with the MEMα culture medium (100 μL), 90 μL of a new MEMa culture medium was dispensed into each well, and each peptide solution (10 μL) was added (total 100 μL/well) such that final concentrations were within a range of 0 mM to 5 mM as shown in Tables 1 to 10 to perform culture for 5 days. A similar culture test was performed using a system containing neither peptide nor FBS as a comparative sample. After culturing for 5 days, 10 μL/well of a viable cell count measurement reagent SF (Nacalai Tesque Inc.) was added, and a color reaction was carried out in an incubator at 37° C. and 5% CO2 for 2 hours to measure an absorbance at 450 nm with a plate reader. A reference wavelength was 630 nm. It was confirmed that the absorbance at 450 nm correlated with the cell number.\nThe above preparation, culture, and measurement were performed with n=3, and Tables 1 to 10 and FIGS. 1 to 10 show the absorbance at the concentration of each peptide solution."}, "[1]": {"tested_on": "serum-free floating CHO DP-12", "assay": "Protein production test on AGK and GPP in floating cell system", "assay_type": "cell-based", "conditions": "AGK 3.95 mM, GPP 4.40 mM + medium supplemented with vitamins and the like, ELISA", "experimental": "Peptides having the sequences of Ala-Gly-Lys (AGK) and Gly-Pro-Pro (GPP) were synthesized to prepare peptide solutions of 5.53 mM of Ala-Gly-Lys (AGK) and 6.16 mM of Gly-Pro-Pro (GPP).\n5 mL of each of a basal medium, a medium supplemented with vitamins and the like (basal medium +a component supplemented with vitamins and the like), and each peptide solution was added to each well of a 24-well (Deep well) cassette of Micro-24 Bioreactor System (manufactured by Nihon Pall Corporation) to perform culture overnight under the conditions of 37° C., pH 7, and 650 rpm. On the next day, pH calibration was performed, and thereafter 2 mL of the cell suspension prepared at 3.5×10^5 cells/mL was added to each well of the 24-well (Deep well) cassette, seeded such that the cell density of the floating cells was 1×10^5 cells/mL (7 mL/well), and cultured in the following evaluation medium under culture conditions of 37° C., pH 7, 650 rpm, and dissolved oxygen of 30%.\n• Basal medium • Medium supplemented with vitamins and the like (basal medium+component supplemented with vitamins and the like) • AGK (3.95 mM)+medium supplemented with vitamins and the like • GPP (4.40 mM)+medium supplemented with vitamins and the like\nAs a culture medium, a basal medium in which 200 nM of methotrexate, 10 μg/mL of insulin, 5.5 μg/mL of transferrin, 6.7 ng/mL of sodium selenite, 10 μL/mL of Anti-Clumping Agent, and 10 μL/mL of 10% Pluronic F68 were blended in a DMEM/F12 culture medium (Gibco) was used.\nAs the floating cells used, serum-free floating CHO DP-12 obtained by acclimating CHO DP-12 (ATCC, Cat. No. CRL-12445) to serum-free flotation and subculturing using a 100 mL volume Erlenmeyer flask and with a shaking culture device (Custom Bio Shaker CO2-BR-43FL, TAITEC CORPORATION) under the culture conditions of 37° C., 5% CO2, and a stirring speed of 125 rpm was used.\nAfter the third day of culture, 150 μL of the culture medium was recovered in a 1.5 mL tube from each well of the 24-well (Deep well) cassette to perform a centrifugation operation (5,000 rpm, for 5 minutes), and the supernatant was recovered to measure the amount of produced protein by ELISA."}},
  "note": "Peptide text beside a SMILES is read from it.",
  "data": [
    {"molecule": "C[C@H](N)C(=O)NCC(=O)N[C@@H](CCCCN)C(=O)O", "note": "[AGK, Ala-Gly-Lys] (H-Ala-Gly-Lys-OH; N-terminus and C-terminus assumed)", "values": [
      {"measurement": "Absorbance (450 nm)", "setting": "CHO-K1; 0.123 mM peptide", "value": 0.0180},
      {"measurement": "Absorbance (450 nm)", "setting": "CHO-K1; 0.247 mM peptide", "value": 0.1440},
      {"measurement": "Absorbance (450 nm)", "setting": "CHO-K1; 0.494 mM peptide", "value": 0.3360},
      {"measurement": "Absorbance (450 nm)", "setting": "CHO-K1; 0.99 mM peptide", "value": 0.5380},
      {"measurement": "Absorbance (450 nm)", "setting": "CHO-K1; 1.97 mM peptide", "value": 0.6613},
      {"measurement": "Absorbance (450 nm)", "setting": "CHO-K1; 3.95 mM peptide", "value": 0.4693},
      {"measurement": "cell growth promotion, order of the peptides", "setting": "CHO-K1", "value": "cell growth was promoted"},
      {"measurement": "Amount of protein produced", "setting": "[1]; Day 3", "value": 17.74, "unit": "mg/L"},
      {"measurement": "Amount of protein produced", "setting": "[1]; Day 4", "value": 31.36, "unit": "mg/L"},
      {"measurement": "Amount of protein produced", "setting": "[1]; Day 5", "value": 49.43, "unit": "mg/L"},
      {"measurement": "Amount of protein produced", "setting": "[1]; Day 6", "value": 65.58, "unit": "mg/L"},
      {"measurement": "Amount of protein produced", "setting": "[1]; Day 7", "value": 73.46, "unit": "mg/L"}
    ]},
    {"molecule": "NCCCC[C@H](NC(=O)[C@H](CCC(=O)O)NC(=O)CN)C(=O)O", "note": "[GEK, Gly-Glu-Lys] (H-Gly-Glu-Lys-OH; N-terminus and C-terminus assumed)", "values": [
      {"measurement": "Absorbance (450 nm)", "setting": "CHO-K1; 0.128 mM peptide", "value": "−0.0903"},
      {"measurement": "Absorbance (450 nm)", "setting": "CHO-K1; 0.257 mM peptide", "value": 0.0657},
      {"measurement": "Absorbance (450 nm)", "setting": "CHO-K1; 0.512 mM peptide", "value": 0.3020},
      {"measurement": "Absorbance (450 nm)", "setting": "CHO-K1; 1.02 mM peptide", "value": 0.6377},
      {"measurement": "Absorbance (450 nm)", "setting": "CHO-K1; 2.05 mM peptide", "value": 1.0050},
      {"measurement": "Absorbance (450 nm)", "setting": "CHO-K1; 4.10 mM peptide", "value": 0.5757},
      {"measurement": "cell growth promotion, order of the peptides", "setting": "CHO-K1", "value": "cell growth was promoted"}
    ]},
    {"molecule": "Asp-Gly-Pro [DGP]", "values": [
      {"measurement": "Absorbance (450 nm)", "setting": "CHO-K1; 0.138 mM peptide", "value": 0.0957},
      {"measurement": "Absorbance (450 nm)", "setting": "CHO-K1; 0.278 mM peptide", "value": 0.2464},
      {"measurement": "Absorbance (450 nm)", "setting": "CHO-K1; 0.555 mM peptide", "value": 0.4127},
      {"measurement": "Absorbance (450 nm)", "setting": "CHO-K1; 1.11 mM peptide", "value": 0.5617},
      {"measurement": "Absorbance (450 nm)", "setting": "CHO-K1; 2.22 mM peptide", "value": 0.7657},
      {"measurement": "Absorbance (450 nm)", "setting": "CHO-K1; 4.44 mM peptide", "value": 0.4004},
      {"measurement": "cell growth promotion, order of the peptides", "setting": "CHO-K1", "value": "cell growth was promoted"}
    ]},
    {"molecule": "Gly-Pro-Pro [GPP]", "values": [
      {"measurement": "Absorbance (450 nm)", "setting": "CHO-K1; 0.137 mM peptide", "value": 0.1163},
      {"measurement": "Absorbance (450 nm)", "setting": "CHO-K1; 0.276 mM peptide", "value": 0.2303},
      {"measurement": "Absorbance (450 nm)", "setting": "CHO-K1; 0.550 mM peptide", "value": 0.4117},
      {"measurement": "Absorbance (450 nm)", "setting": "CHO-K1; 1.10 mM peptide", "value": 0.6443},
      {"measurement": "Absorbance (450 nm)", "setting": "CHO-K1; 2.20 mM peptide", "value": 0.5700},
      {"measurement": "Absorbance (450 nm)", "setting": "CHO-K1; 4.40 mM peptide", "value": 0.3620},
      {"measurement": "cell growth promotion, order of the peptides", "setting": "CHO-K1", "value": "cell growth was promoted"},
      {"measurement": "Amount of protein produced", "setting": "[1]; Day 3", "value": 14.95, "unit": "mg/L"},
      {"measurement": "Amount of protein produced", "setting": "[1]; Day 4", "value": 32.30, "unit": "mg/L"},
      {"measurement": "Amount of protein produced", "setting": "[1]; Day 5", "value": 52.53, "unit": "mg/L"},
      {"measurement": "Amount of protein produced", "setting": "[1]; Day 6", "value": 67.01, "unit": "mg/L"},
      {"measurement": "Amount of protein produced", "setting": "[1]; Day 7", "value": 80.86, "unit": "mg/L"}
    ]}
  ]
}
